The results in this text go back to patent publication US7994209B2, “3-phenoxymethylpyrrolidine compounds” (Theravance, Inc., priority 2009, dated 2011).

Test [1] has as its target hNET (Homo sapiens, UniProt P23975). The test is described as follows: hNET membrane radioligand binding assay (3H-nisoxetine), Assay 1.
Experimental: Membrane radioligand binding assays were used to measure inhibition of labeled ligand (^3H-citalopram or ^3H-nisoxetine or ^3H-WIN35428) binding to membranes prepared from cells expressing the respective human recombinant transporter (hSERT or hNET or hDAT) in order to determine the pKi values of test compounds at the transporters.
Recombinant human embryonic kidney (HEK-293) derived cell lines stably transfected with hSERT or hNET, respectively, were grown in DMEM medium supplemented with 10% dialyzed FBS (for hSERT) or FBS (for hNET), 100 μg/mL penicillin, 100 μg/mL streptomycin, 2 mM L-glutamine and 250 μg/mL of the aminoglycoside antibiotic G418, in a 5% CO2 humidified incubator at 37° C. When cultures reached 80% confluence, the cells were washed thoroughly in PBS (without Ca^2+ and Mg^2+) and lifted with 5 mM EDTA in PBS. Cells were pelleted by centrifugation, resuspended in lysis buffer (10 mM Tris-HCl, pH7.5 containing 1 mM EDTA), homogenized, pelleted by centrifugation, then resuspended in 50 mM Tris-HCl, pH 7.5 and 10% sucrose at 4° C. Protein concentration of the membrane suspension was determined using a Bio-Rad Bradford Protein Assay kit. Membranes were snap frozen and stored at −80° C.
Binding assays were performed in a 96-well assay plate in a total volume of 200 μl assay buffer (50 mM Tris-HCl, 120 mM NaCl, 5 mM KCl, pH 7.4) with 0.5, 1, and 3 μg membrane protein, for SERT, NET and DAT, respectively.
Stock solutions (10 mM in DMSO) of test compound were prepared and serial dilutions made using Dilution Buffer (50 mM Tris-HCl, 120 mM NaCl, 5 mM KCl, pH 7.4, 0.1% BSA, 400 μM ascorbic acid).
Following a 60 minute incubation at 22° C. (or a period sufficient to reach equilibrium), the membranes were harvested by rapid filtration over a 96-well UniFilter GF/B plate, pretreated with 0.3% polyethyleneimine, and washed 6 times with 300 μl wash buffer (50 mM Tris-HCl, 0.9% NaCl, pH 7.5 at 4° C.). Plates were dried overnight at room temperature, approximately 45 μl of MicroScint™-20 (Perkin Elmer) added and bound radioactivity quantitated via liquid scintillation spectroscopy. Inhibition curves and saturation isotherms were analyzed using GraphPad Prism Software package (GraphPad Software, Inc., San Diego, Calif.). IC50 values were generated from concentration response curves using the Sigmoidal Dose Response (variable slope) algorithm in Prism GraphPad.
Test [2] has as its target hSERT (Homo sapiens, UniProt P31645). The test is described as follows: hSERT membrane radioligand binding assay (3H-citalopram), Assay 1. As to conditions: SERT pKi, hSERT HEK-293 membranes, 1.0 nM 3H-citalopram; values given as lower bounds.

hNET, sequence (P23975 whole entry): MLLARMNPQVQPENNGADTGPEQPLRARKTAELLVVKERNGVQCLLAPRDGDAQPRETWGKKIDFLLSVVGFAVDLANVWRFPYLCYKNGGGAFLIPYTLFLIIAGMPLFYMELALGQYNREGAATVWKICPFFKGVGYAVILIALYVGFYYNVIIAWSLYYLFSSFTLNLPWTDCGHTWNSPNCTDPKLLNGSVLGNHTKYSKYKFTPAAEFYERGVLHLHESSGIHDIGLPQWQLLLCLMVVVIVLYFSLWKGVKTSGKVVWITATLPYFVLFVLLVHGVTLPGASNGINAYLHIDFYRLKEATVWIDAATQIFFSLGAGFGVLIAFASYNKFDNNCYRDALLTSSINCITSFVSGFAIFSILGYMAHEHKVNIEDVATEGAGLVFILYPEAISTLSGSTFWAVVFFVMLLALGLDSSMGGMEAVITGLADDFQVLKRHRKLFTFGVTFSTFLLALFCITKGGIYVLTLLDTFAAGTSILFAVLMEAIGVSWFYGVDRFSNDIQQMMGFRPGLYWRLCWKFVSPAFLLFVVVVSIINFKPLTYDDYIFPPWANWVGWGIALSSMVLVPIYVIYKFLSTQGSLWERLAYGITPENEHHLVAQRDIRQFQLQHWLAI
hSERT, sequence (P31645 whole entry): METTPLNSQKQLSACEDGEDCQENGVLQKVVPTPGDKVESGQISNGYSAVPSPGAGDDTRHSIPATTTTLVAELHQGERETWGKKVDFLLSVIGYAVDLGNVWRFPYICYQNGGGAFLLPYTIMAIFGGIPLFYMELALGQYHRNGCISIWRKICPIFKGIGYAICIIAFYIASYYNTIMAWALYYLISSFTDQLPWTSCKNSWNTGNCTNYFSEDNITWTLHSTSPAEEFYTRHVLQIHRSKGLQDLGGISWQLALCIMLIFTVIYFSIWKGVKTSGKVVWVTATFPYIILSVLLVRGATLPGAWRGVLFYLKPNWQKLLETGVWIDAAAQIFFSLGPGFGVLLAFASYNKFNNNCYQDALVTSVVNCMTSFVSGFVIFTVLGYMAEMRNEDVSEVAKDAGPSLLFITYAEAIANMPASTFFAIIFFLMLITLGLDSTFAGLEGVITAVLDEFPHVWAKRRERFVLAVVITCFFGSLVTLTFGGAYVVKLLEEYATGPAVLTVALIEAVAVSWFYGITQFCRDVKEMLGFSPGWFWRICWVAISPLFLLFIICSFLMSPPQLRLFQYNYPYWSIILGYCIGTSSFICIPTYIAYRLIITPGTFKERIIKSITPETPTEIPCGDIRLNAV

Broadly, the Ki is the dissociation constant of the complex between target and ligand, obtained from inhibition or displacement. Regarding `Clc1cc(Cl)c(O[C@@H](C2CC2)[C@H]2CCNC2)cc1Cl` [Example 16-71, (S)-3-[(S)cyclopropyl-(2,4,5-trichlorophenoxy)methyl]pyrrolidine], the values for the Ki in test [1] and in test [2] were not above 100 nM and not above 10 nM, respectively.
The matching figures for `CC[C@@H](Oc1ccc(Cl)cc1C)[C@H]1CCNC1` [Example 2-59, (S)-3-[(R)-1-(4-Chloro-2-methylphenoxy)propyl]pyrrolidine]: not above 100 nM and not above 10 nM.
As for `CCC[C@H](Oc1ccc(Cl)cc1Cl)[C@@H]1CCNC1` [Example 4-30, (R)-3-[(S)-1-(2,4-Dichlorophenoxy)butyl]pyrrolidine], the Ki is not above 100 nM in test [1] and not above 10 nM in test [2].
On to `CC[C@H](Oc1cccc(C(F)(F)F)c1)[C@H]1CCNC1` [Example 2-16, (S)-3-[(S)-1-(3-Trifluoromethylphenoxy)propyl]pyrrolidine], for which the Ki in test [1] is not above 100 nM; in test [2], not above 10 nM.
With `CC(C)[C@@H](Oc1ccc(Cl)cc1Cl)[C@H]1CCNC1` [Example 6-22, (S)-3-[(R)-1-(2,4-Dichlorophenoxy)-2-methylpropyl]pyrrolidine], the Ki in test [1] was not above 100 nM; in test [2], not above 10 nM.
The matching figures for `CC[C@@H](Oc1ccccc1C)[C@H]1CCNC1` [Example 2-63, (S)-3-((R)-1-o-Tolyloxypropyl)pyrrolidine]: not above 100 nM and not above 100 nM.
As for `CC[C@H](Oc1ccc(F)cc1)[C@H]1CCNC1` [Example 2-12, (S)-3-[(S)-1-(4-Fluorophenoxy)propyl]pyrrolidine], the Ki in test [1] and in test [2] was not above 100 nM in each case.
Regarding `CCCC[C@@H](Oc1ccc(Cl)cc1C)[C@H]1CCNC1` [Example 8-10, (S)-3-[(R)-1-(4-Chloro-2-methylphenoxy)pentyl]pyrrolidine], the Ki in test [1] and in test [2] was not above 10 nM throughout.
For `CC[C@H](Oc1c(F)cccc1F)[C@H]1CCNC1` [Example 2-49, (S)-3-[(S)-1-(2,6-Difluorophenoxy)propyl]pyrrolidine], the Ki in test [1] is not above 10 nM; in test [2], not above 100 nM.
As to `CC(C)CC(Oc1cccc(F)c1)C1CCNC1` (stereo not shown) [Example 10-6, 3-[1-(3-Fluorophenoxy)-3-methylbutyl]pyrrolidine], the values for the Ki in test [1] and in test [2] were not above 10 nM and not above 100 nM, respectively.
For the compound `CC(C)C(Oc1ccc(C(F)(F)F)cc1)C1CCNC1` (stereo not shown) [Example 6-77, 3-[2-Methyl-1-(4-trifluoromethylphenoxy)propyl]pyrrolidine], the Ki in test [1] is not above 100 nM; in test [2] it was not above 10 nM.
For `CC[C@@H](Oc1ccc(Cl)cc1Cl)[C@@H]1CCNC1` [Example 2-33, (R)-3-[(R)-1-(2,4-Dichlorophenoxy)propyl]pyrrolidine], the Ki was not above 100 nM in test [1] and not above 10 nM in test [2].
Regarding `Fc1ccccc1O[C@H](C1CCCCC1)[C@H]1CCNC1` [Example 20-1, (S)-3-[(R)-Cyclohexyl-(2-fluorophenoxy)methyl]pyrrolidine], the Ki in test [1] was not above 10 nM; in test [2], not above 100 nM.
Turning to `C#CC(Oc1ccc(Cl)cc1C)[C@H]1CCNC1` (stereo partly drawn) [Example 27-2, (S)-3-[1-(4-Chloro-2-methylphenoxy)prop-2-ynyl]pyrrolidine], the figures for the Ki in test [1] and in test [2] were not above 100 nM and not above 10 nM, respectively.
`CC(C)[C@@H](Oc1ccc(Cl)cc1C(F)(F)F)[C@H]1CCNC1` [Example 6-52, (S)-3-[(R)-1-(4-Chloro-2-trifluoromethylphenoxy)-2-methylpropyl]pyrrolidine]: the Ki in test [1] and in test [2] was not above 100 nM throughout.
On to `CC(C)C[C@H](Oc1ccc(Cl)cc1Cl)[C@@H]1CCNC1` [Example 10-43, (R)-3-[(S)-1-(2,4-Dichlorophenoxy)-3-methylbutyl]pyrrolidine], for which the Ki in test [1] is not above 100 nM; in test [2], not above 10 nM.
With `FC(F)(F)c1ccc(O[C@@H](C2CC2)[C@H]2CCNC2)cc1` [Example 16-104, (S)-3-[(S)cyclopropyl-(4-trifluoromethylphenoxy)methyl]pyrrolidine], the Ki was not above 100 nM in test [1] and not above 10 nM in test [2].
